± gives the standard deviation of the averaged measurements.
Key:
[1] = compound: COc1cc([C@@H]2c3cc4c(cc3[C@@H](O[C@@H]3O[C@@H]5CO[C@@H](C)O[C@H]5[C@H](O)[C@H]3O)[C@H]3COC(=O)[C@H]23)OCO4)cc(OC)c1O [ETOPOSIDE]; assay: surviving fraction relative to DMSO-only wells; higher = less growth inhibition; conditions: exposure time: 5 days
Method in brief: (§1)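 After seeding at 250–500 cells per well in 384-well plates and a 24-hour wait, log-phase tumour cell lines were exposed without interruption for five days to inhibitors at 0.5, 1, 5, 10, 50, 100, 500 and 1000 nM. CellTiter-Glo luminescence was recorded after 10 minutes at room temperature. Viability is reported as surviving fraction, the luminescence normalised to the median of DMSO-only wells.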

[2] = compound: CN(Cc1cnc2nc(N)nc(N)c2n1)c1ccc(C(=O)N[C@@H](CCC(=O)O)C(=O)O)cc1 [METHOTREXATE]; assay: as above; conditions: exposure time: 5 days
Method in brief: as §1

## VCAP PROSTATE
[1]; 0.5 nM
  surviving fraction: 1.19 ± 0.16
[1]; 1 nM
  surviving fraction: 1.07 ± 0.032
[1]; 5 nM
  surviving fraction: 1.14 ± 0.11
[1]; 10 nM
  surviving fraction: 1.14 ± 0.088
[1]; 50 nM
  surviving fraction: 1.07 ± 0.1
[1]; 100 nM
  surviving fraction: 1.05 ± 0.092
[1]; 500 nM
  surviving fraction: 0.541 ± 0.063
[1]; 1000 nM
  surviving fraction: 0.421 ± 0.049
[2]; 0.5 nM
  surviving fraction: 0.961 ± 0.06
[2]; 1 nM
  surviving fraction: 0.984 ± 0.036
[2]; 5 nM
  surviving fraction: 1.02 ± 0.094
[2]; 10 nM
  surviving fraction: 1.07 ± 0.11
[2]; 50 nM
  surviving fraction: 1.03 ± 0.079
[2]; 100 nM
  surviving fraction: 1.07 ± 0.062
[2]; 500 nM
  surviving fraction: 1.02 ± 0.078
[2]; 1000 nM
  surviving fraction: 1 ± 0.058

## MDAMB453 BREAST
[1]; 0.5 nM
  surviving fraction: 1.07 ± 0.098
[1]; 1 nM
  surviving fraction: 1.13 ± 0.14
[1]; 5 nM
  surviving fraction: 1.13 ± 0.057
[1]; 10 nM
  surviving fraction: 1.13 ± 0.07
[1]; 50 nM
  surviving fraction: 1.16 ± 0.046
[1]; 100 nM
  surviving fraction: 1.15 ± 0.076
[1]; 500 nM
  surviving fraction: 1.14 ± 0.12
[1]; 1000 nM
  surviving fraction: 0.984 ± 0.078
[2]; 0.5 nM
  surviving fraction: 1.04 ± 0.088
[2]; 1 nM
  surviving fraction: 1.06 ± 0.025
[2]; 5 nM
  surviving fraction: 1.12 ± 0.068
[2]; 10 nM
  surviving fraction: 1.04 ± 0.038
[2]; 50 nM
  surviving fraction: 0.966 ± 0.024
[2]; 100 nM
  surviving fraction: 0.757 ± 0.028
[2]; 500 nM
  surviving fraction: 0.655 ± 0.039
[2]; 1000 nM
  surviving fraction: 0.66 ± 0.018

## MDAMB157 BREAST
[1]; 0.5 nM
  surviving fraction: 0.927 ± 0.12
[1]; 1 nM
  surviving fraction: 0.938 ± 0.044
[1]; 5 nM
  surviving fraction: 1.07 ± 0.044
[1]; 10 nM
  surviving fraction: 0.99 ± 0.055
[1]; 50 nM
  surviving fraction: 0.895 ± 0.038
[1]; 100 nM
  surviving fraction: 0.874 ± 0.1
[1]; 500 nM
  surviving fraction: 0.201 ± 0.046
[1]; 1000 nM
  surviving fraction: 0.221 ± 0.053
[2]; 0.5 nM
  surviving fraction: 1.02 ± 0.12
[2]; 1 nM
  surviving fraction: 0.908 ± 0.012
[2]; 5 nM
  surviving fraction: 1.05 ± 0.023
[2]; 10 nM
  surviving fraction: 1.02 ± 0.09
[2]; 50 nM
  surviving fraction: 0.946 ± 0.01
[2]; 100 nM
  surviving fraction: 0.947 ± 0.06
[2]; 500 nM
  surviving fraction: 0.839 ± 0.044
[2]; 1000 nM
  surviving fraction: 0.857 ± 0.076

## HELA CERVIX
[1]; 0.5 nM
  surviving fraction: 1.1 ± 0.033
[1]; 1 nM
  surviving fraction: 1.1 ± 0.023
[1]; 5 nM
  surviving fraction: 1.04 ± 0.031
[1]; 10 nM
  surviving fraction: 1.04 ± 0.015
[1]; 50 nM
  surviving fraction: 1.14 ± 0.063
[1]; 100 nM
  surviving fraction: 1.18 ± 0.059
[1]; 500 nM
  surviving fraction: 0.301 ± 0.044
[1]; 1000 nM
  surviving fraction: 0.182 ± 0.0037
[2]; 0.5 nM
  surviving fraction: 1.06 ± 0.044
[2]; 1 nM
  surviving fraction: 1.027 ± 0.0067
[2]; 5 nM
  surviving fraction: 1.03 ± 0.039
[2]; 10 nM
  surviving fraction: 1.02 ± 0.018
[2]; 50 nM
  surviving fraction: 0.712 ± 0.085
[2]; 100 nM
  surviving fraction: 0.332 ± 0.018
[2]; 500 nM
  surviving fraction: 0.282 ± 0.012
[2]; 1000 nM
  surviving fraction: 0.288 ± 0.016

## LM7 BONE
[1]; 0.5 nM
  surviving fraction: 0.9 ± 0.14
[1]; 1 nM
  surviving fraction: 0.941 ± 0.072
[1]; 5 nM
  surviving fraction: 1.01 ± 0.068
[1]; 10 nM
  surviving fraction: 1.01 ± 0.13
[1]; 50 nM
  surviving fraction: 0.994 ± 0.12
[1]; 100 nM
  surviving fraction: 0.953 ± 0.075
[1]; 500 nM
  surviving fraction: 0.677 ± 0.034
[1]; 1000 nM
  surviving fraction: 0.449 ± 0.045
[2]; 0.5 nM
  surviving fraction: 1.061 ± 0.0066
[2]; 1 nM
  surviving fraction: 0.974 ± 0.085
[2]; 5 nM
  surviving fraction: 1.13 ± 0.015
[2]; 10 nM
  surviving fraction: 1.17 ± 0.06
[2]; 50 nM
  surviving fraction: 0.919 ± 0.033
[2]; 100 nM
  surviving fraction: 0.885 ± 0.065
[2]; 500 nM
  surviving fraction: 0.699 ± 0.042
[2]; 1000 nM
  surviving fraction: 0.64 ± 0.023

## SCC90 HEADNECK
[1]; 0.5 nM
  surviving fraction: 1.02 ± 0.099
[1]; 1 nM
  surviving fraction: 1.11 ± 0.12
[1]; 5 nM
  surviving fraction: 1.18 ± 0.092
[1]; 10 nM
  surviving fraction: 1.2 ± 0.2
[1]; 50 nM
  surviving fraction: 1.22 ± 0.15
[1]; 100 nM
  surviving fraction: 1.13 ± 0.13
[1]; 500 nM
  surviving fraction: 0.999 ± 0.18
[1]; 1000 nM
  surviving fraction: 0.878 ± 0.21
[2]; 0.5 nM
  surviving fraction: 1.07 ± 0.075
[2]; 1 nM
  surviving fraction: 1.05 ± 0.11
[2]; 5 nM
  surviving fraction: 1.07 ± 0.066
[2]; 10 nM
  surviving fraction: 1.09 ± 0.098
[2]; 50 nM
  surviving fraction: 0.954 ± 0.015
[2]; 100 nM
  surviving fraction: 0.852 ± 0.068
[2]; 500 nM
  surviving fraction: 0.424 ± 0.06
[2]; 1000 nM
  surviving fraction: 0.416 ± 0.031

## OSHN BONE
[1]; 0.5 nM
  surviving fraction: 1.05 ± 0.025
[1]; 1 nM
  surviving fraction: 1.05 ± 0.042
[1]; 5 nM
  surviving fraction: 1.06 ± 0.046
[1]; 10 nM
  surviving fraction: 1.06 ± 0.041
[1]; 50 nM
  surviving fraction: 1.07 ± 0.042
[1]; 100 nM
  surviving fraction: 1.07 ± 0.048
[1]; 500 nM
  surviving fraction: 0.452 ± 0.042
[1]; 1000 nM
  surviving fraction: 0.174 ± 0.0076
[2]; 0.5 nM
  surviving fraction: 1.12 ± 0.015
[2]; 1 nM
  surviving fraction: 1.077 ± 0.0067
[2]; 5 nM
  surviving fraction: 0.197 ± 0.0074
[2]; 10 nM
  surviving fraction: 0.201 ± 0.0096
[2]; 50 nM
  surviving fraction: 0.282 ± 0.031
[2]; 100 nM
  surviving fraction: 0.265 ± 0.0081
[2]; 500 nM
  surviving fraction: 0.251 ± 0.023
[2]; 1000 nM
  surviving fraction: 0.255 ± 0.031

## HCT15 LARGE INTESTINE
[1]; 0.5 nM
  surviving fraction: 1.01 ± 0.037
[1]; 1 nM
  surviving fraction: 0.981 ± 0.03
[1]; 5 nM
  surviving fraction: 1.01 ± 0.041
[1]; 10 nM
  surviving fraction: 1.04 ± 0.046
[1]; 50 nM
  surviving fraction: 1.007 ± 0.0047
[1]; 100 nM
  surviving fraction: 1.05 ± 0.033
[1]; 500 nM
  surviving fraction: 0.704 ± 0.095
[1]; 1000 nM
  surviving fraction: 0.328 ± 0.037
[2]; 0.5 nM
  surviving fraction: 1.08 ± 0.046
[2]; 1 nM
  surviving fraction: 1.05 ± 0.13
[2]; 5 nM
  surviving fraction: 1.04 ± 0.13
[2]; 10 nM
  surviving fraction: 0.749 ± 0.18
[2]; 50 nM
  surviving fraction: 0.138 ± 0.014
[2]; 100 nM
  surviving fraction: 0.102 ± 0.017
[2]; 500 nM
  surviving fraction: 0.137 ± 0.019
[2]; 1000 nM
  surviving fraction: 0.134 ± 0.015

## MFM223 BREAST
[1]; 0.5 nM
  surviving fraction: 1.1 ± 0.056
[1]; 1 nM
  surviving fraction: 1.19 ± 0.14
[1]; 5 nM
  surviving fraction: 1.17 ± 0.12
[1]; 10 nM
  surviving fraction: 1.07 ± 0.038
[1]; 50 nM
  surviving fraction: 1.12 ± 0.035
[1]; 100 nM
  surviving fraction: 1.06 ± 0.035
[1]; 500 nM
  surviving fraction: 0.721 ± 0.032
[1]; 1000 nM
  surviving fraction: 0.729 ± 0.052
[2]; 0.5 nM
  surviving fraction: 1.18 ± 0.11
[2]; 1 nM
  surviving fraction: 1.3 ± 0.3
[2]; 5 nM
  surviving fraction: 1.35 ± 0.41
[2]; 10 nM
  surviving fraction: 1.41 ± 0.43
[2]; 50 nM
  surviving fraction: 1.09 ± 0.096
[2]; 100 nM
  surviving fraction: 0.98 ± 0.046
[2]; 500 nM
  surviving fraction: 1.04 ± 0.035
[2]; 1000 nM
  surviving fraction: 1.01 ± 0.018

## HOS BONE
[1]; 0.5 nM
  surviving fraction: 1.01 ± 0.011
[1]; 1 nM
  surviving fraction: 1.02 ± 0.033
[1]; 5 nM
  surviving fraction: 1.02 ± 0.018
[1]; 10 nM
  surviving fraction: 1.019 ± 0.0095
[1]; 50 nM
  surviving fraction: 0.978 ± 0.01
[1]; 100 nM
  surviving fraction: 0.707 ± 0.033
[1]; 500 nM
  surviving fraction: 0.0687 ± 0.0011
[1]; 1000 nM
  surviving fraction: 0.067 ± 0.0056
[2]; 0.5 nM
  surviving fraction: 1.02 ± 0.036
[2]; 1 nM
  surviving fraction: 0.999 ± 0.024
[2]; 5 nM
  surviving fraction: 0.252 ± 0.018
[2]; 10 nM
  surviving fraction: 0.223 ± 0.0095
[2]; 50 nM
  surviving fraction: 0.232 ± 0.013
[2]; 100 nM
  surviving fraction: 0.226 ± 0.0083
[2]; 500 nM
  surviving fraction: 0.218 ± 0.01
[2]; 1000 nM
  surviving fraction: 0.214 ± 0.018

— the supplement of paper PMC6045584
